Experimental data published in patent publication US10947237B2, “Antimicrobial compounds and methods of making and using the same” (BIOVERSYS AG, priority 2015, dated 2021).

Columns and labels:
[1] = tested on: Eschericia coli (E. Coli) strain ATCC25922; assay: standard microdilution assay, minimum inhibitory concentration (MIC); type: cell-based; details: Escherichia coli
Outline: (§1)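 Compounds were scored +/− against a 16 µg/mL MIC cutoff, using CLSI-based microdilution with QC reference strains. The organisms were S. aureus 11540 and E. coli ATCC25922.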

[2] = tested on: Staphylococcus aureus (S. aureus) 11540 strain; assay: as above; type: cell-based
Outline: as §1

| SMILES | MIC ([1]; Table 2, strain ATCC25922) [µg/mL] | MIC ([2]; Table 2, 11540 strain) [µg/mL] | MIC ([1]; ATCC25922, Table 2a) [µg/mL] | MIC ([2]; Table 2a) [µg/mL] |
| --- | --- | --- | --- | --- |
| N=C(N)NCC[C@H](CNC(=N)N)OCc1ccc(-n2cc3cc(C4CCNC4)[nH]c3nc2=O)cc1 (some centres unmarked) [Compound 129] | ≤ 16 | ≤ 16 | – | – |
| O=c1nc2[nH]c(C3CCNC3)cc2cn1-c1ccc([C@@H]2CCC[C@@H](CCc3ncc[nH]3)N2)cc1 (some centres unmarked) [Compound 130] | ≤ 16 | > 16 | – | – |
| C[C@@H](CCNC(=N)N)OCc1ccc(-n2cc3cc(C4CCNC4)[nH]c3nc2=O)cc1 (some centres unmarked) [Compound 131] | > 16 | > 16 | – | – |
| C=C[C@@H](CCNC(=N)N)OCc1ccc(-n2cc3cc(-c4cc(CCC[C@H](C)N)cc(Cl)c4F)[nH]c3nc2=O)cc1 [Compound 132] | ≤ 16 | ≤ 16 | – | – |
| C[C@H](N)CCCc1cc(Cl)c(F)c(-c2cc3cn(-c4ccc(N5CCO[C@H](CCNC(=N)N)C5)cc4)c(=O)nc3[nH]2)c1 [Compound 133] | ≤ 16 | ≤ 16 | – | – |
| C[C@H](N)CCCc1cc(Cl)c(F)c(-c2cc3cn(-c4ccc(N5CCO[C@@H](CCNC(=N)N)C5)cc4)c(=O)nc3[nH]2)c1 [Compound 134] | ≤ 16 | ≤ 16 | – | – |
| C[C@H](N)CCCc1cc(Cl)c(F)c(-c2cc3cn(-c4ccc(CO[C@@H](CF)CCNC(=N)N)cc4)c(=O)nc3[nH]2)c1 [Compound 135] | ≤ 16 | ≤ 16 | – | – |
| N=C(N)NCC[C@H](CF)OCc1ccc(-n2cc3cc(C4CCNC4)[nH]c3nc2=O)cc1 (some centres unmarked) [Compound 136] | > 16 | > 16 | – | – |
| CC(=N)NCC[C@H]1CC(NC(C)=N)C[C@H](c2ccc(-n3cc4cc(-c5cc(CCC[C@H](C)N)cc(Cl)c5F)[nH]c4nc3=O)cc2)O1 (some centres unmarked) [Compound 137] | ≤ 16 | ≤ 16 | – | – |
| C[C@H](N)CCCc1cc(Cl)c(F)c(-c2cc3cn(-c4ccc([C@H]5CC(NC6=NCCN6)C[C@H](CCNC6=NCCN6)O5)cc4)c(=O)nc3[nH]2)c1 (some centres unmarked) [Compound 138] | ≤ 16 | ≤ 16 | – | – |
| C=C[C@@H](CCNC(=N)N)NCc1ccc(-n2cc3cc(-c4cc([C@H]5CC[C@H](CN)O5)cc(Cl)c4F)[nH]c3nc2=O)cc1 [Compound 139] | ≤ 16 | ≤ 16 | – | – |
| C=C[C@@H](CCNC(=N)N)NCc1ccc(-n2cc3cc(-c4cc([C@H]5CC[C@@H](CN)O5)cc(Cl)c4F)[nH]c3nc2=O)cc1 [Compound 140] | ≤ 16 | ≤ 16 | – | – |
| C=C[C@@H](CCNC(=N)N)NCc1ccc(-n2cc3cc(-c4cc([C@@H]5CC[C@@H](CN)O5)cc(Cl)c4F)[nH]c3nc2=O)cc1 [Compound 141] | ≤ 16 | ≤ 16 | – | – |
| C=C[C@@H](CCNC(=N)N)NCc1ccc(-n2cc3cc(-c4cc([C@@H]5CC[C@H](CN)O5)cc(Cl)c4F)[nH]c3nc2=O)cc1 [Compound 142] | ≤ 16 | ≤ 16 | – | – |
| C[C@H](N)CCCc1cc(Cl)c(F)c(-c2cc3cn(-c4ccc([C@H]5CC(N)C[C@H](CCNC6=NCCN6)O5)cc4)c(=O)nc3[nH]2)c1 (some centres unmarked) [Compound 143] | ≤ 16 | ≤ 16 | – | – |
| N=C(N)NCC[C@H]1CN(c2ccc(-n3cc4cc(CCNC5CCNCC5)[nH]c4nc3=O)cc2)CCO1 [Compound 144] | ≤ 16 | > 16 | – | – |

Next, values leading:

| MIC ([1]; Table 2, strain ATCC25922) [µg/mL] | MIC ([2]; Table 2, 11540 strain) [µg/mL] | MIC ([1]; ATCC25922, Table 2a) [µg/mL] | MIC ([2]; Table 2a) [µg/mL] | SMILES |
| --- | --- | --- | --- | --- |
| > 16 | > 16 | – | – | N=C(N)NCC[C@H]1CN(c2ccc(-n3cc4cc(C5CCNC5)[nH]c4nc3=O)cc2)CCO1 (some centres unmarked) [Compound 145] |
| > 16 | > 16 | – | – | N=C(N)NCC[C@@H]1CN(c2ccc(-n3cc4cc(CCNC5CCNCC5)[nH]c4nc3=O)cc2)CCO1 [Compound 146] |
| > 16 | > 16 | – | – | N=C(N)NCC[C@@H]1CN(c2ccc(-n3cc4cc(C5CCNC5)[nH]c4nc3=O)cc2)CCO1 (some centres unmarked) [Compound 147] |
| ≤ 16 | ≤ 16 | – | – | C[C@H](NCCCNC(=N)N)c1ccc(-n2cc3cc(-c4cc([C@@H]5CC[C@@H](CN)O5)cc(Cl)c4F)[nH]c3nc2=O)cc1 [Compound 148] |
| ≤ 16 | ≤ 16 | – | – | C[C@H](NCCCNC(=N)N)c1ccc(-n2cc3cc(-c4cc([C@@H]5CC[C@H](CN)O5)cc(Cl)c4F)[nH]c3nc2=O)cc1 [Compound 149] |
| ≤ 16 | ≤ 16 | – | – | N=C(CF)NCC[C@@H]1CCC[C@@H](c2ccc(-n3cc4cc(-c5cc(CCC[C@@H](N)CO)cc(Cl)c5F)[nH]c4nc3=O)cc2)N1 [Compound 150] |
| ≤ 16 | ≤ 16 | – | – | CC(=N)NCC[C@@H]1CCC[C@@H](c2ccc(-n3cc4cc(-c5cc(CCC[C@@H](N)CO)cc(Cl)c5F)[nH]c4nc3=O)cc2)N1 [Compound 151] |
| ≤ 16 | ≤ 16 | – | – | C[C@H](N)CCCC1CC(c2cc3cn(-c4ccc([C@H](C)NCCCNC(=N)N)cc4)c(=O)nc3[nH]2)CCN1 (some centres unmarked) [Compound 152] |
| – | – | ≤ 16 | ≤ 16 | C[C@H](N)CCCc1cc(Cl)c(F)c(-c2cc3cn(-c4ccc(CO[C@H](CCNC(=N)N)CN(C)C)cc4)c(=O)nc3[nH]2)c1 [Compound 159] |
| – | – | ≤ 16 | ≤ 16 | C=C[C@H](N)CCCc1cc(Cl)c(F)c(-c2cc3cn(-c4ccc(CO[C@H](CCNC(=N)N)CNC(=N)N)cc4)c(=O)nc3[nH]2)c1 [Compound 160] |
| – | – | ≤ 16 | ≤ 16 | COC[C@H](N)CCCc1cc(OC(F)(F)F)c(F)c(-c2cc3cn(-c4ccc(CO[C@H](CCNC(C)=N)CNC(C)=N)cc4)c(=O)nc3[nH]2)c1 [Compound 161] |
| – | – | ≤ 16 | ≤ 16 | N=C(N)NCC[C@H](CNC(=N)N)OCc1ccc(-n2cc3cc(-c4cc(CCC[C@@H](N)CF)cc(Cl)c4F)[nH]c3nc2=O)cc1 [Compound 162] |
| – | – | ≤ 16 | ≤ 16 | N=C(N)NCC[C@H](CNC(=N)N)OCc1ccc(-n2cc3cc(-c4cc(CCC[C@@H](N)CO)cc(Cl)c4F)[nH]c3nc2=O)cc1 [Compound 163] |
| – | – | ≤ 16 | ≤ 16 | N=C(N)NCC[C@H](CNC(=N)N)OCc1ccc(-n2cc3cc(-c4cc(CCC[C@@H](N)C5CC5)cc(Cl)c4F)[nH]c3nc2=O)cc1 [Compound 164] |
| – | – | ≤ 16 | ≤ 16 | COC[C@H](N)CCCc1cc(OC(F)(F)F)c(F)c(-c2cc3cn(-c4ccc(CO[C@H](CCNC(=N)N)CNC(=N)N)cc4)c(=O)nc3[nH]2)c1 [Compound 165] |
| – | – | ≤ 16 | ≤ 16 | CC(C)(N)CCCc1cc(Cl)c(F)c(-c2cc3cn(-c4ccc(CO[C@H](CCNC(=N)N)CNC(=N)N)cc4)c(=O)nc3[nH]2)c1 [Compound 166] |
| – | – | ≤ 16 | ≤ 16 | C[C@H](N)CCCc1cc(Cl)c(F)c(-c2cc3cn(-c4ccc(CO[C@H](CCNS(C)(=O)=O)CNC(=N)N)cc4)c(=O)nc3[nH]2)c1 [Compound 167] |
| – | – | ≤ 16 | ≤ 16 | CC(=N)NC[C@@H](CCNC(=N)N)OCc1ccc(-n2cc3cc(-c4cc(CCC[C@H](C)N)cc(Cl)c4F)[nH]c3nc2=O)cc1 [Compound 168] |
| – | – | ≤ 16 | ≤ 16 | CC(=N)NCC[C@H](CNC(C)=N)OCc1ccc(-n2cc3cc(-c4cc(CCC[C@H](C)N)cc(Cl)c4F)[nH]c3nc2=O)cc1 [Compound 169] |
| – | – | ≤ 16 | ≤ 16 | C[C@H](N)CCCc1cc(Cl)c(F)c(-c2cc3cn(-c4ccc(CO[C@H](CCNC(N)=O)CNC(=N)N)cc4)c(=O)nc3[nH]2)c1 [Compound 170] |
| – | – | ≤ 16 | ≤ 16 | CC(=N)NCC[C@H](CNC(=N)N)OCc1ccc(-n2cc3cc(-c4cc(CCC[C@H](C)N)cc(Cl)c4F)[nH]c3nc2=O)cc1 [Compound 171] |
